Experimental findings from PMC6642116, “Structural and functional analyses of hepatitis B virus X protein BH3-like domain and Bcl-xL interaction” (Nature Communications, 2019) are described below.

Where two headings read alike, the source gives them in different places. Residues, ends and D or L forms follow the SMILES beside them.

Data set [1] addresses T1, Bcl-xL (Homo sapiens, UniProt Q07817, DEL27-82).
T1 construct: 6xHis-SUMO (N, cleaved yes); made in house; host or cells: Escherichia coli BL21(DE3)
The data set can be described thus: Isothermal titration calorimetry of peptides with Bcl-xL. The data set is classed as binding. The conditions noted are these: ITC, 25 °C, peptide 800 μM. The source says:
The codon-optimized DNAs encoding Bcl-xLΔTM (the flexible loop, residues 27–82, and the transmembrane domain, residues, 197–233, are deleted, total […], named as Bcl-xL thereafter) was ordered from Genewiz (www.genewiz.com). The recombinant Bcl-xL with N-terminal SUMO-fused 6× His tag was generated by the insertion of the PCR products into pETSUMO vector (Invitrogen; www.thermofisher.com) and verified by sequencing. Recombinant proteins were expressed in Escherichia coli (BL21/DE3) strain overnight at 20 °C and proteins were induced by 0.4 mM isopropyl β-D-thiogalactoside. Cells were harvested by centrifugation and the pellets were re-suspended and passed through a cell disruptor (www.avestin.com) three times. After ultracentrifugation at 40,000 rpm for 1 h, the supernatant for His-tagged recombinant proteins were purified through Ni^2+ affinity column, cleaved by Ulp-1, followed by HiLoad Superdex S-75 26/60 column (GE Healthcare). The purified proteins were dialyzed against stabilization buffer containing 20 mM Tris-HCl (pH 7.0) and 100 mM NaCl and concentrated to 10–15 mg/ml in a Centriprep-30 (Amicon) for subsequent crystallization and biochemical analysis.
Microcalorimetry was used for all measurements. Bcl-xL protein was prepared at a final concentration of 10 μM in a buffer containing 25 mM Tris-HCl (pH 8.0). The ABT-263 was dissolved in the same buffer to a final concentration of 500 μM, while the peptides were dissolved to a final concentration of 800 μM. All experiments were carried out at 25 °C. Data were analyzed using the software Origin (OriginLab).

Data set [2] concerns HepG2-NTCP cells. In words: Cell viability (CCK8 assay) of HBV-infected HepG2-NTCP cells. The data set is classed as cell-based. Also noted: unit not given here. The conditions noted are these: CCK8, 200 µg/mL, day 8 after HBV infection. A general note: Formazan colour is commonly taken as a measure of viable cells.
For data set [3], the system named is HepG2-NTCP cells. The data set is described as above. The conditions noted are these: for Cell viability: day 8 after HBV infection. Also on record: Cell viability: unit not given here. In kind it is cell-based. As to the method: Fig. 6 The HBx-aa118–127 peptide, but not ABT-263, inhibits HBV replication and transcription in HepG2.2.15 cells. a HepG2.2.15 cells were treated with 125, 250, 500, and 1000 nM of ABT-263 for 2 days. Cytoplasmic HBV viral particles were isolated and the viral DNA replication intermediates were quantified (Methods). The results represent the fold change of the replicative intermediates in HepG2.2.15 cells from the indicated treatments, compared with those without treatment. b HepG2.2.15 cells were treated with the indicated concentrations of ABT-263 for 2 days. The lysate was analyzed by immunoblotting using antibodies to caspase-3 (CASP3) and GAPDH (glyceraldehyde 3-phosphate dehydrogenase). c, d The HBx-aa113–135, HBx-aa118–127, or the control peptides were delivered into HepG2.2.15 cells using PEP-1 nanoparticles (Methods). The levels of HBV DNA (c) and the levels of HBV S-antigen (HBsAg) expression (d) in culture medium collected from HepG2.2.15 cells were measured (Methods). The results are shown as fold change compared to that of the control peptide. e–g HepG2-NTCP cells were transfected with HBx118–127 peptide with concentration of […], and 50 μg/ml or unrelated control peptide during HBV infection (multiplicity of infection (MOI) = 200), respectively. e HBV e-antigen (HBeAg), f HBV DNA, and g cell viability were measured at day 8 after HBV infection. Data shown represent mean ± SD. Significance is indicated on the top. Not significant (ns): *P < 0.05, **P < 0.01; two-tailed unpaired t tests (n = 3 biologically independent samples). Source data are provided as a Source Data file
HBx-aa118-127 peptide treatment.
obvious cytotoxicity at concentrations between 12.5-200 µg/mL (Fig. 6g). Taken together, […]

The mark [4] stands for this setting: Bcl-xL 10 μM in 25 mM Tris-HCl (pH 8.0), read-out: dissociation constant.

`CC[C@H](C)[C@H](NC(=O)[C@H](CCC(=O)O)NC(=O)[C@H](CCC(=O)O)NC(=O)CNC(=O)[C@H](CC(C)C)NC(=O)[C@H](CCC(=O)O)NC(=O)[C@H](CCC(=O)O)NC(=O)[C@H](Cc1c[nH]c2ccccc12)NC(=O)[C@H](CC(=O)O)NC(=O)[C@@H](N)CCCCN)C(=O)O` [HBx-aa118–127] (H-KDWEELGEEI-OH): the Kd worked out at 10 ± 2.95 µM in data set [1] (setting [4]) and 21 ± 4.05 µM in data set [1] (Bcl-xL 10 μM presaturated with ABT-263, 25 mM Tris-HCl (pH 8.0), read-out: dissociation constant, Bcl-xL presaturated with ABT-263). For the same compound, the Cell viability in data set [2] (replicate 1) is 96.104; in data set [2] (replicate 2), 101.260; in data set [2] (replicate 3) it was 101.966; in data set [3] (CCK8, 12.5 µg/mL, replicate 1), 94.534; in data set [3] (CCK8, 12.5 µg/mL, replicate 2), 96.726; in data set [3] (CCK8, 12.5 µg/mL, replicate 3), 98.429. In addition, the Cell viability in data set [3] (CCK8, 50 µg/mL, replicate 1) was 92.904; in data set [3] (CCK8, 50 µg/mL, replicate 2), 96.191; in data set [3] (CCK8, 50 µg/mL, replicate 3), 97.303. In data set [3] (HepG2-NTCP, 12.5, 50, and 200 µg/ml), the “cytotoxicity (in words)” value was “no obvious cytotoxicity”.

Regarding `CC[C@H](C)[C@H](NC(=O)[C@H](CCC(=O)O)NC(=O)[C@H](CCC(=O)O)NC(=O)CNC(=O)[C@H](CC(C)C)NC(=O)[C@H](CCC(=O)O)NC(=O)[C@H](CCC(=O)O)NC(=O)[C@H](Cc1c[nH]c2ccccc12)NC(=O)[C@H](CC(=O)O)NC(=O)[C@H](CCCCN)NC(=O)[C@H](Cc1ccccc1)NC(=O)[C@@H](NC(=O)[C@H](CS)NC(=O)[C@H](CC(=O)O)NC(=O)[C@@H](N)CCCCN)C(C)C)C(=O)N[C@@H](CCCNC(=N)N)C(=O)N[C@@H](CC(C)C)C(=O)N[C@@H](CCCCN)C(=O)N[C@H](C(=O)N[C@@H](Cc1ccccc1)C(=O)N[C@H](C(=O)N[C@@H](CC(C)C)C(=O)NCC(=O)O)C(C)C)C(C)C` [HBx-aa113–135], in data set [1] (setting [4]), the Kd came out at 26.5 ± 13.7 µM.
